Data: patent US5476944A, “Derivatives of cyclic phenolic thioethers” (G. D. Searle & Co., priority 1994, dated 1995)

Molecular target: T1, cellular COX-II (Homo sapiens, UniProt P35354)
T1 construct: stimulated human fetal dermal fibroblasts (HFDF, derived from primary cell cultures); endogenous in cells; host or cells: human fetal dermal fibroblasts (HFDF), primary, stimulated with IL-1 beta
T1 sequence (P35354 18-604): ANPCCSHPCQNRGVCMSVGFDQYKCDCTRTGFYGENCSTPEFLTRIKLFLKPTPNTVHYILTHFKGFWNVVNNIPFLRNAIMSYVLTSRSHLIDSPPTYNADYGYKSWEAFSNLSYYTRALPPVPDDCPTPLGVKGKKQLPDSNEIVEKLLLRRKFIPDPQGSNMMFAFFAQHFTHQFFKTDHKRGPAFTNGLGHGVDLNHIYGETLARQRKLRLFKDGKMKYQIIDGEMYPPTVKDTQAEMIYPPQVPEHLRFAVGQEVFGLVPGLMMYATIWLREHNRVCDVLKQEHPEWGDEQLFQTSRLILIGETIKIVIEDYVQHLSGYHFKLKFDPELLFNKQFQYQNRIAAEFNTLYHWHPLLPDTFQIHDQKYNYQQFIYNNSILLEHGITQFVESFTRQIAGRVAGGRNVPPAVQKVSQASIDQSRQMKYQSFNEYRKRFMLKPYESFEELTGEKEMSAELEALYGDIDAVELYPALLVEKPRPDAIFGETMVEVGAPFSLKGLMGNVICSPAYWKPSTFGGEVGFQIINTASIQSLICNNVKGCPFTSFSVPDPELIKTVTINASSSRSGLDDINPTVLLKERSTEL
Assay: Cellular COX-II Assay (Cell Fibroblast Assay), IL-1 stimulated human fetal dermal fibroblasts, PGE2
Assay type: cell-based
Conditions: IL-1 beta stimulated human fetal dermal fibroblasts
Experimental: The compounds of the invention are evaluated with respect to the inhibition of cellular COX-II in vitro according to the following Cellular COX-II Assay (Cell Fibroblast Assay).
Cellular COX-II Assay (Cell Fibroblast Assay)
Inhibition of cellular COX-II by test compounds is determined using stimulated human fetal dermal fibroblasts (HFDF, derived from primary cell cultures). Fibroblasts are cultured in microtiter wells at 1.5×10^4 cells/well in Dulbecco's Modified Eagle's Media (DMEM)(Gibco/BRL, Gaithersburg, Md. Sigma Chemical Co., St. Louis, Mo.) containing 4500 mg glucose/L, 100 units penicillin G/ml and 0.1 mg streptomycin/ml, 4 mM L-glutamine, 25 mM Hepes and 10% Fetal Bovine Serum (Gibco/BRL, Gaithersburg, Md. Bioproducts For Science, Inc., Indianapolis,Ind.). Following a 3-day incubation at 37° C., the culture media is removed by aspiration using low vacuum, and the cells are stimulated overnight with medium containing human recombinant IL-1 (interleukin-1) beta (1 ng/ml)(Cistron, Pine Brook, N.J.). The next day, the fibroblasts are washed with Phosphate Buffered Saline, and 185 μl of DMEM is added to each well. The cells are placed in a 37° C. incubator for 15 minutes. Compounds are then added to the cells using seven half-log dilutions in duplicate determinations. Cells are incubated with test compounds at 37° C. for 30 minutes. The COX-II substrate arachidonic acid (20 μM; Nu-Chek-Prep Inc., Elysian, Minn.) is then added to the cell cultures and the plates are incubated for 10 minutes at 37° C. Supernatants are collected and Prostaglandin E2 (PGE2) production is measured by an enzyme-linked immunosorbent assay (ELISA; antibodies produced by Cayman Chemical Company, Ann Arbor, Mich.). […] PG,60
The following is a description of how the activities of the compounds of the present invention may be determined.
A run of this assay consists of one (or more) plates, each containing, along with the standard (in row A), (1) two wells of unstimulated material (in col. 12), (2) five wells of stimulated material (in col. 12), (3) seven wells (one per concentration) for indomethacin (in col. 11), and (4) two wells at each of seven concentrations for five test compounds, one of which is a repeat of indomethacin. The response (ng/ml Eicosanoid) is estimated from the Standard curve and is highest at low concentrations and decreases as the concentration increases. If the response is plotted on the y-axis and the log of the concentration is plotted on the x-axis, the dose-response pattern for these assays is typically a symmetrical, sigmoidal shaped curve. If a full range of concentrations is used, the complete sigmoidal curve may be seen, starting with an upper asymptote, falling at some degree of steepness, and then leveling off at a lower asymptote. The IC50 is defined as the concentration corresponding to a response midway between the upper and lower plateaus. A theoretic "dose-response" model is used to estimate the IC50.
The procedure described below was used to define the minimum and maximum responses for the compounds on a plate.
The procedure uses information for indomethacin and the rest of the plate in defining the minimum and maximum response. The justification for doing this is as follows. Enough runs have been done with indomethacin to determine and use a range of concentrations such that the response to the lowest concentrations is on the upper plateau of the sigmoidal curve and the response to the highest concentrations is on the lower plateau of the sigmoidal curve. For the other compounds, if a response is measured which is less than the response for the unstimulated wells, then this response may be considered to be another estimate of a minimal response. Likewise, if a response is measured which is greater than the response for the stimulated wells, then this response may be considered to be another estimate of a maximal response. Based on this reasoning, the minimum is estimated as follows: […]

## CC(C)(C)c1cc(S[C@H]2CCCC[C@H]2OCC(=O)O)cc(C(C)(C)C)c1 (racemic) [Example 72, (±)cis-2-[[2-[[3,5-bis(1,1-dimethylethyl)phenyl]thio]cyclohexyl]oxy]acetic acid]
  IC50: 370 nM
